For 44 molecules, IC50 results are on record in patent US10266526B2, “Substituted 1,2,3-triazoles as SMYD inhibitors for treating cancer” (EPIZYME, INC., priority 2014, dated 2019).

For this assay, the target named is SMYD3 (Homo sapiens (Human), UniProt Q9H7B4). Description: SMYD3 biochemical assay (SMYD3 enzyme assay on MEKK2 protein substrate, 3H-SAM scintillation proximity assay). Conditions: read-out: SMYD3 Biochem IC50. The method, boiled down: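 Native full-length human SMYD3, expressed in E. coli, was preincubated with compound for 30 min at room temperature in 25 mM Tris-Cl pH 8.0, 1 mM TCEP, 0.005% BSG and 0.005% Tween 20. ³H-SAM plus GST-MEKK2 then started the reaction. It was stopped with unlabeled SAM (100 uM final), and methylated MEKK2 was read by SPA.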
A general note: SPA uses beads or plates that emit light when radiolabelled molecules are held near them.

Where only a bound is given, the exact number is not on record here.

Chain of SMYD3 (Q9H7B4 whole entry): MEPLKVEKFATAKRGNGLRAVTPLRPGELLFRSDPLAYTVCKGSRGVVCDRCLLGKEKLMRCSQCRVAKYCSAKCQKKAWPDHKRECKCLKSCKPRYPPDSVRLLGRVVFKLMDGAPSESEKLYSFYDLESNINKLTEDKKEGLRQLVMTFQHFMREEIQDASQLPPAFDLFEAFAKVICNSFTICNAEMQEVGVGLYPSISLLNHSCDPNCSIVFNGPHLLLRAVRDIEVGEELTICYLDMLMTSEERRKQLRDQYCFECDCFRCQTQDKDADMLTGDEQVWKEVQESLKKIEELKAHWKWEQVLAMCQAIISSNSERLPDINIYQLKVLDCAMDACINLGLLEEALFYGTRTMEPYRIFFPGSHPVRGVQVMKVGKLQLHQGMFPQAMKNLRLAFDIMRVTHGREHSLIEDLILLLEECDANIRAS

As a reminder, the IC50 is the midpoint of a concentration-inhibition curve. As for `Cc1cccc2cc(C(=O)N[C@H]3CC[C@H](N)CC3)[nH]c12` [compound 343, N-((1r,4r)-4-aminocyclohexyl)-7-methyl-1H-indole-2-carboxamide], the concentration for half-maximal inhibition (IC50) amounted to 68.5 µM.
The result for `Cc1cncc(C(=O)N[C@H]2CC[C@H](NC(=O)CCN)CC2)c1` [compound 344, N-((1r,4r)-4-(3-aminopropanamido)cyclohexyl)-5-methylnicotinamide] reads 36.4 µM; that for `Cc1cncc(C(=O)N[C@H]2CC[C@H](N)CC2)c1` [compound 345, N-((1r,4r)-4-aminocyclohexyl)-5-methylnicotinamide], 50.7 µM.
The result for `Cc1ccc(C(=O)N[C@H]2CC[C@H](N)CC2)cn1` [compound 346, N-((1r,4r)-4-aminocyclohexyl)-6-methylnicotinamide] reads > 100 µM; that for `Cc1nscc1C(=O)N[C@H]1CC[C@H](NC(=O)CCN)CC1` [compound 347, N-((1r,4r)-4-(3-aminopropanamido)cyclohexyl)-3-methylisothiazole-4-carboxamide], > 100 µM.
Under `Cc1nscc1C(=O)N[C@H]1CC[C@H](N)CC1` [compound 348, N-((1r,4r)-4-aminocyclohexyl)-3-methylisothiazole-4-carboxamide] stands > 100 µM; under `Cn1ccc(C(=O)N[C@H]2CC[C@H](NC(=O)CCN)CC2)n1` [compound 349, N-((1r,4r)-4-(3-aminopropanamido)cyclohexyl)-1-methyl-1H-pyrazole-3-carboxamide], > 100 µM; under `Cn1ccc(C(=O)N[C@H]2CC[C@H](N)CC2)n1` [compound 350, N-((1r,4r)-4-aminocyclohexyl)-1-methyl-1H-pyrazole-3-carboxamide], > 100 µM.
With `Cn1nc(C(C)(C)C)cc1C(=O)N[C@H]1CC[C@H](NC(=O)CCN)CC1` [compound 351, N-((1r,4r)-4-(3-aminopropanamido)cyclohexyl)-3-(tert-butyl)-1-methyl-1H-pyrazole-5-carboxamide], the IC50 is > 100 µM.
Under `Cn1nc(C(C)(C)C)cc1C(=O)N[C@H]1CC[C@H](N)CC1` [compound 352, N-((1r,4r)-4-aminocyclohexyl)-3-(tert-butyl)-1-methyl-1H-pyrazole-5-carboxamide] stands > 100 µM; under `COc1cccc(C(=O)N[C@H]2CC[C@H](NC(=O)CCN)CC2)n1` [compound 353, N-((1r,4r)-4-(3-aminopropanamido)cyclohexyl)-6-methoxypicolinamide], > 100 µM.
Under `COc1cccc(C(=O)N[C@H]2CC[C@H](N)CC2)n1` [compound 354, N-((1r,4r)-4-aminocyclohexyl)-6-methoxypicolinamide] stands > 100 µM; under `COc1cncc(C(=O)N[C@H]2CC[C@H](NC(=O)CCN)CC2)n1` [compound 355, N-((1r,4r)-4-(3-aminopropanamido)cyclohexyl)-6-methoxypyrazine-2-carboxamide], > 100 µM; under `COc1cncc(C(=O)N[C@H]2CC[C@H](N)CC2)n1` [compound 356, N-((1r,4r)-4-aminocyclohexyl)-6-methoxypyrazine-2-carboxamide], > 100 µM.
The result for `CC(NC(=O)c1ccc(N)cn1)C1CCN(C(=O)[C@H](C)N)CC1` (stereo partly drawn) [compound 357, N-(1-(1-(L-alanyl)piperidin-4-yl)ethyl)-5-aminopicolinamide] reads > 100 µM.
Consider `N[C@H]1CC[C@H](NC(=O)c2ccc(Cl)cc2C(F)(F)F)CC1` [compound 358, N-((1r,4r)-4-aminocyclohexyl)-4-chloro-2-(trifluoromethyl)benzamide], for which the half-maximal inhibitory concentration (IC50) is > 100 µM.
The result for `N[C@H]1CC[C@H](NC(=O)c2cncs2)CC1` [compound 359, N-((1r,4r)-4-aminocyclohexyl)thiazole-5-carboxamide] reads > 100 µM; that for `N[C@H]1CC[C@H](NC(=O)c2c[nH]c3ccccc23)CC1` [compound 360, N-((1r,4r)-4-aminocyclohexyl)-1H-indole-3-carboxamide], > 100 µM.
For the molecule `NCCC(=O)N[C@H]1CC[C@H](NC(=O)c2ccc(O)cn2)CC1` [compound 361, N-((1r,4r)-4-(3-aminopropanamido)cyclohexyl)-5-hydroxypicolinamide], the IC50 was > 100 µM.
The result for `N[C@H]1CC[C@H](NC(=O)Cc2cc(F)cc(F)c2)CC1` [compound 362, N-((1r,4r)-4-aminocyclohexyl)-2-(3,5-difluorophenyl)acetamide] reads > 100 µM.
The result for `NCCC(=O)N[C@H]1CC[C@H](NC(=O)Cc2cccnc2)CC1` [compound 363, 3-amino-N-((1r,4r)-4-(2-(pyridin-3-yl)acetamido)cyclohexyl)propanamide] reads > 100 µM; that for `NCCC(=O)N[C@H]1CC[C@H](NC(=O)Cc2cncnc2)CC1` [compound 364, 3-amino-N-((1r,4r)-4-(2-(pyrimidin-5-yl)acetamido)cyclohexyl)propanamide], > 100 µM.
The result for `N[C@H]1CC[C@H](NC(=O)Cc2cncnc2)CC1` [compound 365, N-((1r,4r)-4-aminocyclohexyl)-2-(pyrimidin-5-yl)acetamide] reads > 100 µM; that for `NCCC(=O)N[C@H]1CC[C@H](NC(=O)Cn2ccnc2)CC1` [compound 366, N-((1r,4r)-4-(2-(1H-imidazol-1-yl)acetamido)cyclohexyl)-3-aminopropanamide], > 100 µM.
Take `N[C@H]1CC[C@H](NC(=O)c2nc3ccccc3s2)CC1` [compound 367, N-((1r,4r)-4-aminocyclohexyl)benzo[d]thiazole-2-carboxamide]: the half-inhibitory concentration (IC50) is > 100 µM.
The result for `CC(NC(=O)c1ccc2cc[nH]c2c1)C1CCN(C(=O)[C@H](C)N)CC1` (stereo partly drawn) [compound 368, N-(1-(1-(L-alanyl)piperidin-4-yl)ethyl)-1H-indole-6-carboxamide] reads 12.3 µM; that for `COc1cccc2[nH]cc(C(=O)NC(C)C3CCN(C(=O)[C@H](C)N)CC3)c12` (stereo partly drawn) [compound 370, N-(1-(1-(L-alanyl)piperidin-4-yl)ethyl)-4-methoxy-1H-indole-3-carboxamide], > 100 µM.
The result for `COc1cccc2[nH]cc(C(=O)N[C@H]3CC[C@H](NC(=O)CCN)CC3)c12` [compound 371, N-((1r,4r)-4-(3-aminopropanamido)cyclohexyl)-4-methoxy-1H-indole-3-carboxamide] reads > 100 µM.
Under `COc1cccc2[nH]cc(C(=O)N[C@H]3CC[C@H](N)CC3)c12` [compound 372, N-((1r,4r)-4-aminocyclohexyl)-4-methoxy-1H-indole-3-carboxamide] stands > 100 µM; under `NCCC(=O)N[C@H]1CC[C@H](NC(=O)c2cnc3ccccc3n2)CC1` [compound 373, N-((1r,4r)-4-(3-aminopropanamido)cyclohexyl)quinoxaline-2-carboxamide], > 100 µM; under `NCCC(=O)N[C@H]1CC[C@H](NC(=O)c2nc3ccccc3[nH]2)CC1` [compound 374, N-((1r,4r)-4-(3-aminopropanamido)cyclohexyl)-1H-benzo[d]imidazole-2-carboxamide], 86.6 µM.
Take `NCCC(=O)N[C@H]1CC[C@H](NC(=O)CCCn2ccnc2)CC1` [compound 375, N-((1r,4r)-4-(3-aminopropanamido)cyclohexyl)-4-(1H-imidazol-1-yl)butanamide]: the half-maximal inhibitory concentration (IC50) is > 100 µM.
The result for `NCCC(=O)N[C@H]1CC[C@H](NC(=O)c2ccnc(O)c2)CC1` [compound 376, N-((1r,4r)-4-(3-aminopropanamido)cyclohexyl)-2-hydroxyisonicotinamide] reads > 100 µM; that for `CC(NC(=O)c1ccc(O)nc1)C1CCN(C(=O)[C@H](C)N)CC1` (stereo partly drawn) [compound 378, N-(1-(1-(L-alanyl)piperidin-4-yl)ethyl)-6-hydroxynicotinamide], > 100 µM.
As for `Cc1cnccc1C(=O)N[C@H]1CC[C@H](NC(=O)CCN)CC1` [compound 379, N-((1r,4r)-4-(3-aminopropanamido)cyclohexyl)-3-methylisonicotinamide], the IC50 was > 100 µM.
Under `Cc1cnccc1C(=O)N[C@H]1CC[C@H](N)CC1` [compound 380, N-((1r,4r)-4-aminocyclohexyl)-3-methylisonicotinamide] stands > 100 µM; under `Cc1ccncc1C(=O)N[C@H]1CC[C@H](NC(=O)CCN)CC1` [compound 381, N-((1r,4r)-4-(3-aminopropanamido)cyclohexyl)-4-methylnicotinamide], > 100 µM; under `Cc1ccc(C(=O)N[C@H]2CC[C@H](NC(=O)CCN)CC2)cn1` [compound 382, N-((1r,4r)-4-(3-aminopropanamido)cyclohexyl)-6-methylnicotinamide], > 100 µM.
Take `COc1cnc(C(=O)N[C@H]2CC[C@H](NC(=O)CCN)CC2)cn1` [compound 383, N-((1r,4r)-4-(3-aminopropanamido)cyclohexyl)-5-methoxypyrazine-2-carboxamide]: the concentration for half-maximal inhibition (IC50) is > 100 µM.
The result for `COc1cnc(C(=O)N[C@H]2CC[C@H](N)CC2)cn1` [compound 384, N-((1r,4r)-4-aminocyclohexyl)-5-methoxypyrazine-2-carboxamide] reads > 100 µM.
The result for `NCCC(=O)N[C@H]1CC[C@H](NC(=O)c2cccc(N)n2)CC1` [compound 385, 6-amino-N-((1r,4r)-4-(3-aminopropanamido)cyclohexyl)picolinamide] reads > 100 µM; that for `Nc1cccc(C(=O)N[C@H]2CC[C@H](N)CC2)n1` [compound 386, 6-amino-N-((1r,4r)-4-aminocyclohexyl)picolinamide], > 100 µM; that for `CC(NC(=O)c1ccc(N)nc1)C1CCN(C(=O)[C@H](C)N)CC1` (stereo partly drawn) [compound 387, N-(1-(1-(L-alanyl)piperidin-4-yl)ethyl)-6-aminonicotinamide], > 100 µM.
The result for `NCCC(=O)N[C@H]1CC[C@H](NC(=O)c2ccc(N)nc2)CC1` [compound 388, 6-amino-N-((1r,4r)-4-(3-aminopropanamido)cyclohexyl)nicotinamide] reads > 100 µM.
